# Results: patent publication US6420558B1, “Aminopiperidine derivates as integrin αvβ3 antagonists” (Meiji Seika Kaisha, Ltd., priority 1998, dated 2002)
# Biological target: T1, integrin α5β1 (fibronectin receptor purified from the human placenta) (Homo sapiens, UniProt P05556+P08648)
# T1 construct: a fibronectin receptor (protein content: 52.1 μg/ml) purified from the human placenta; from tissue; host or cells: human placenta
# Assay: α5β1 binding assay (fibronectin-fibronectin receptor binding assay)
# Conditions: fibronectin binding to human placenta fibronectin receptor; read-out: α5β1 Binding inhibitory activity
# Method: Integrin α5β1 antagonistic activity (lethality) was measured for the compounds according to the present invention in a fibronectin-fibronectin receptor binding assay system in accordance with the method of Kouns et al. (W. C. Kouns, D. Kirchhofer, P. Hadvary, A. Edenhofer, T. Weller, G. Pfenninger, H. R. Baumgartner, L. K. Jennings, and B. Steiner, Blood, 80, 2539-2547 (1992)).
# Specifically, a fibronectin receptor (protein content: 52.1 μg/ml) purified from the human placenta by the method of Pytela et al. (R. Pytela, M. D. Pierschbacher, S. Argraves, S. Suzuki, and E. Ruoslahti, Method in Enzymology, 144, 475-489 (1987)) was diluted 25 times with TBS (20 mM Tris-HCl, 150 mM NaCl, 1 mM CaCl2, 1 mM MgCl2, pH 7.4), and distributed and coated on wells (50 μl/well) of a plate (Maxisorp, Nunc, 96 well Immuno Plate). The plate was then allowed to stand at 4° C. for one day, washed twice with TBS (200 μl/well), and then subjected to blocking with TBS (150 μl/well) containing 3% skim milk (DIFCO) at 4° C. overnight. After washing twice with TBS (200 μl/well) containing 0.05% Tween-20 and then washing twice with TBS (200 μl/well), purification was carried out according to the method of E. Engvall et al. (E. Engvall, E. Ruoslahti, and E. J. Miller, J. Exp. Med., 147, 1584-1595 (1978)), and 50 […] of fibronectin adjusted to 0.2 μg/ml by the addition of TBS (TBS-Tween) containing 0.01% Tween-20 was mixed with 50 μl of each test compound adjusted to each concentration in the wells, and a reaction was allowed to proceed at room temperature for 3 hr. After the completion of the reaction, the wells were washed five times with TBS-Tween. A solution prepared by diluting a peroxidase-labeled fibronectin antibody (CAPPEL) 500 times with TBS-Tween was added in an amount of 50 μl per well, and a reaction was allowed to proceed at room temperature for 1.5 hr. After washing five times with TBS-Tween (200 μl/well), ABTS (SIGMA) adjusted to 1 mg/ml by the addition of a ten-fold diluted POD-buffer (ZYMED) was added in an amount of 50 μl/well, and a reaction was allowed to proceed for 5 to 10 min. A 0.1 M citric acid buffer (pH 4.3) containing 0.05% NaN3 was added in an amount of 50 μl/well to stop the reaction, followed by the measurement of the absorbance at 415 nm with a microplate reader (MTP 32, Corona Electric) (reference: 675 nm). The total binding was defined as the absorbance after a reaction using 50 μl of TBS-Tween instead of the test compound, and the non-specific binding (100% inhibition) was defined as the absorbance after a reaction using 50 μl of TBS-Tween containing 2×10^−3 M RGDS. The inhibition was calculated by the following equation: [formula]
# IC50 was determined from a primary regression line of the logarithm of each concentration of the test compound and the logarithm of (100−inhibition)/inhibition.
# T1 sequence (P08648 42-894 limits assumed): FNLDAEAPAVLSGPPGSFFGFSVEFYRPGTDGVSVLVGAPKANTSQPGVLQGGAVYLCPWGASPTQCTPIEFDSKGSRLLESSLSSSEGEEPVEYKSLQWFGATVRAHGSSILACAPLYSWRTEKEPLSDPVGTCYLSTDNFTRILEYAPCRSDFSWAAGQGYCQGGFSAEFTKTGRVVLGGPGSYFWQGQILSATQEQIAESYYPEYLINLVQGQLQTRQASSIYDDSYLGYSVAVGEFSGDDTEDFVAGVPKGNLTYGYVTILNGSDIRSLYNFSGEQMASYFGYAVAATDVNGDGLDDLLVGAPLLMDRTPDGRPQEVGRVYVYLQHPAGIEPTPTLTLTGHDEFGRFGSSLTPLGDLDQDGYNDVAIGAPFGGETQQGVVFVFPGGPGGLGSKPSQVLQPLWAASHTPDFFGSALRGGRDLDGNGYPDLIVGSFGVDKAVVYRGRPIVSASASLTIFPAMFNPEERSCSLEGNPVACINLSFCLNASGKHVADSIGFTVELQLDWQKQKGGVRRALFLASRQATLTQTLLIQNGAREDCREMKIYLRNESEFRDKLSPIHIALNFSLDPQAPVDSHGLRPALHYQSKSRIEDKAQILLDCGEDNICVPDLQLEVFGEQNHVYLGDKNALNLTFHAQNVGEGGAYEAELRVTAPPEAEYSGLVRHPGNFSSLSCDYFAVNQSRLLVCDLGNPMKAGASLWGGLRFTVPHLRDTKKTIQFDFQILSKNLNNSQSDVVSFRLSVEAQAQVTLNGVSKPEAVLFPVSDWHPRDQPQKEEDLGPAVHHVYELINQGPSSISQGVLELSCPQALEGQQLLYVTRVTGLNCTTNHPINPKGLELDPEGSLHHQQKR
# T1 sequence (P08648 895-1049 limits assumed): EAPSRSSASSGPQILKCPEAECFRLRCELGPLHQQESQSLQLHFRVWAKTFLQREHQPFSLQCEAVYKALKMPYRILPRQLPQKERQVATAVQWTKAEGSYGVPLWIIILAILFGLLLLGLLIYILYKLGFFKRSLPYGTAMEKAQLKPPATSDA
# T1 sequence (P05556 21-798): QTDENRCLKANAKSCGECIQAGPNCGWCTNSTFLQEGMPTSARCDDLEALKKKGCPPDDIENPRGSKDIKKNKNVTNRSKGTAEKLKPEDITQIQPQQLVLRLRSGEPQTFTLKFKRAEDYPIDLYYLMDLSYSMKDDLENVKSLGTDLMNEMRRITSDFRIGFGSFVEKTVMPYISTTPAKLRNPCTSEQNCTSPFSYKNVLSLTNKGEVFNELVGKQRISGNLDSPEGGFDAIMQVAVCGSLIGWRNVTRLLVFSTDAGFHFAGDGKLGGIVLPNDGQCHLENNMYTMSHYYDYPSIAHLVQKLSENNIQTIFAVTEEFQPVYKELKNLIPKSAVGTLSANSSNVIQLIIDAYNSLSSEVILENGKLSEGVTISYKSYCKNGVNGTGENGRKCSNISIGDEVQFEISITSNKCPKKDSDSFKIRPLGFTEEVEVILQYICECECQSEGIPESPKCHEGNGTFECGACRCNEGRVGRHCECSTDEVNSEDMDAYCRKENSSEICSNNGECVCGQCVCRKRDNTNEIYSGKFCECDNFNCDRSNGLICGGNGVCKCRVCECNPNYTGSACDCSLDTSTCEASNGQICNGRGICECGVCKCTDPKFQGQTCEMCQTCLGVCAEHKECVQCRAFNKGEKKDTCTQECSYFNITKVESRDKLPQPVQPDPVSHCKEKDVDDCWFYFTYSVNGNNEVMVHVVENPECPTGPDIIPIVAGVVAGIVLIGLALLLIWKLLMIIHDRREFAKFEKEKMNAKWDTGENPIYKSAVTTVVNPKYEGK
smiles,measurement,value
"O=C(NC[C@H](NS(=O)(=O)c1ccccc1)C(=O)O)c1ccc(N2CCC(NC3=NCCCN3)CC2)c(F)c1 [Example 52, (2S)-Benzenesulfonylamino-3-[3-fluoro-4-{4-(1,4,5,6-tetrahydropyrimidin-2-ylamino)piperidin-1-yl}-benzoylamino]propionic acid]",IC50,330 nM
